In brackets after ≈: the same amount, converted by molar mass.
Key:
Type in all cases: cell-based
Bacillus subtilis = experiment: agar-dilution MIC, B. subtilis; conditions: 10^4 CFU/spot
Source text: (§1) The following results were obtained on a standard in vitro test system. The activity is described in terms of the minimum inhibitory concentration (MIC) determined by the agar-dilution technique with an inoculum size of 10^4 CFU/spot.

[1] = tested on: Streptococcus pyogenes C203; experiment: agar-dilution MIC, S. pyogenes C203; conditions: agar with 5% defibrinated horse blood, 10^4 CFU/spot, 37° C., 5% carbon dioxide, 48 hours
Procedure: as §1
(§2) Streptococci and enterococci were tested on agar supplemented with 5% defibrinated horse blood, an inoculum of 10^4 CFU/spot and an incubation temperature of 37° C. in an atmosphere of 5% carbon dioxide for 48 hours--blood is required for the growth of some of the test organisms.

[2] = tested on: Coagulase Negative Staphylococci MR; experiment: agar-dilution MIC, coagulase negative staphylococci MR; conditions: methicillin resistant, 10^4 CFU/spot, 37° C., 24 hours
Procedure: as §1
(§3) Staphylococci were tested on agar, using an inoculum of 10^4 CFU/spot and an incubation temperature of 37° C. for 24 hours--standard test conditions for the expression of methicillin resistance.
MR = methicillin resistant

Enterococcus faecalis = experiment: agar-dilution MIC, E. faecalis; conditions: agar with 5% defibrinated horse blood, 10^4 CFU/spot, 37° C., 5% carbon dioxide, 48 hours
Procedure: as §1, §2

[3] = tested on: Staphylococcus aureus Oxford; experiment: agar-dilution MIC, S. aureus Oxford; conditions: 10^4 CFU/spot, 37° C., 24 hours
Procedure: as §1, §3

[4] = tested on: Staphylococcus aureus MRQS; experiment: agar-dilution MIC, S. aureus MRQS; conditions: methicillin resistant quinolone sensitive, 10^4 CFU/spot, 37° C., 24 hours
Procedure: as §1, §3
MRQS = methicillin resistant quinolone sensitive

[5] = tested on: Coagulase Negative Staphylococci MS; experiment: agar-dilution MIC, coagulase negative staphylococci MS; conditions: 10^4 CFU/spot, 37° C., 24 hours
Procedure: as §1, §3

[6] = tested on: Staphylococcus aureus MRQR; experiment: agar-dilution MIC, S. aureus MRQR; conditions: methicillin resistant quinolone resistant, 10^4 CFU/spot, 37° C., 24 hours
Procedure: as §1, §3
MRQR = methicillin resistant quinolone resistant

## CC(=O)NC[C@H]1CN(c2ccc(N3CCN(C)C(=O)C3)c(F)c2)C(=O)O1 [Example 1, N-(5S)-[3-(3-fluoro-4-{4-methyl-3-oxopiperazin-1-yl}phenyl)-2-oxooxazolidin-5-ylmethyl]acetamide]
Bacillus subtilis
  MIC: 1 µg/mL (≈ 2.74 µM)
[1]
  MIC: 1 µg/mL (≈ 2.74 µM)
[2]
  MIC: 1 µg/mL (≈ 2.74 µM)
Enterococcus faecalis
  MIC: 2 µg/mL (≈ 5.49 µM)
[3]
  MIC: 1 µg/mL (≈ 2.74 µM)
[4]
  MIC: 2 µg/mL (≈ 5.49 µM)
[5]
  MIC: 0.5 µg/mL (≈ 1.37 µM)
[6]
  MIC: 4 µg/mL (≈ 11 µM)

Source: patent US6069145A, “Piperazinonephenyloxazolidinone derivatives and their use as antibacterial agents” (Zeneca Limited, priority 1996, dated 2000)
